Consider 18 compounds from PubChem BioAssay AID264 (DTP/NCI, 2004).

Values joined by “and” are separate entries in the source; they are usually repeats but may differ in a detail not shown here. Identical values can stand only once. Records with an inconclusive call do not appear.

This test concerns nude mice, LX-1 lung xenograft intrarenal, tumor weight T/C. Description: NCI In Vivo Anticancer Drug Screen. Data for tumor model Human Lung LX-1 Xenograft (intrarenal inoculation) in NU/NU Swiss (nude) mice. The settings on record: endpoint: mean tumor weight change, higher = larger tumour. Summed up:
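Antitumor effect is expressed as a ratio: the mean tumor measurement of the drug-treated group relative to that of the vehicle-dosed control group.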

[1] abbreviates: dose: 50.0 mg/kg/injection, schedule: Q01DX010 (sc), vehicle: Klucel (hydroxypropylcellulose) (HPC).
The mark [2] stands for this setting: dose: 200.0 mg/kg/injection, schedule: Q01DX010 (sc), vehicle: Klucel (hydroxypropylcellulose) (HPC).
[3] abbreviates: dose: 400.0 mg/kg/injection, schedule: Q01DX010 (sc), vehicle: Klucel (hydroxypropylcellulose) (HPC).
The mark [4] stands for this setting: dose: 150.0 mg/kg/injection, schedule: Q04DX003 (sc), vehicle: saline with Tween-80.
[5] abbreviates: dose: 300.0 mg/kg/injection, schedule: Q04DX003 (sc), vehicle: saline with Tween-80.
[6] abbreviates: dose: 32.0 mg/kg/injection, schedule: Q01DX010 (sc), vehicle: saline.
[7] abbreviates: dose: 75.0 mg/kg/injection, schedule: Q04DX003 (sc), vehicle: saline with Tween-80.
Setting [8] is: dose: 600.0 mg/kg/injection, schedule: Q04DX003 (sc), vehicle: saline with Tween-80.
[9] abbreviates: dose: 100.0 mg/kg/injection, schedule: Q04DX003 (sc), vehicle: Klucel (hydroxypropylcellulose) (HPC).

Take `CC1CN=C(c2ccc(NC(=O)c3ccc(C(=O)Nc4ccc(C5=NCC(C)N5)cc4)cc3)cc2)N1` (centres undefined): the T/C runs as follows: under setting [1], 213 % of control; (dose: 100.0 mg/kg/injection, schedule: Q01DX010 (sc), vehicle: Klucel (hydroxypropylcellulose) (HPC)) 68 % of control; under setting [2], 94 % of control; under setting [3], 84 % of control.

In the case of `C[n+]1cccc(NC(=O)c2ccc(NC(=O)C34CCC(C(=O)Nc5ccc(C(=O)Nc6ccc[n+](C)c6)cc5)(CC3)CC4)cc2)c1`, the T/C (dose: 12.5 mg/kg/injection, schedule: Q04DX003 (sc), vehicle: saline with Tween-80) was 103 % of control; the T/C (dose: 25.0 mg/kg/injection, schedule: Q04DX003 (sc), vehicle: saline with Tween-80) is 76 % of control; the T/C (dose: 50.0 mg/kg/injection, schedule: Q04DX003 (sc), vehicle: saline with Tween-80) is 53 % of control.

Regarding `CC1(O)CC23CC(O)C4(O)C(CC(O)C4(C)C)C(C)(O)C2CCC1C3O` (centres undefined), the T/C is 78 % of control (dose: 0.25 mg/kg/injection, schedule: Q04DX003 (sc), vehicle: Klucel (hydroxypropylcellulose) (HPC)); 77 % of control (dose: 0.5 mg/kg/injection, schedule: Q04DX003 (sc), vehicle: Klucel (hydroxypropylcellulose) (HPC)); 58 % of control (dose: 1.0 mg/kg/injection, schedule: Q04DX003 (sc), vehicle: Klucel (hydroxypropylcellulose) (HPC)).

For `CCN(CC)CCCC(C)Nc1c2ccc(Cl)cc2nc2ccc(OC)cc12` (centres undefined), the T/C runs as follows: (dose: 12.5 mg/kg/injection, schedule: Q01DX010 (sc), vehicle: saline with Tween-80) 98 % of control; (dose: 25.0 mg/kg/injection, schedule: Q01DX010 (sc), vehicle: saline with Tween-80) 102 % of control and 108 % of control; under setting [4], 75 % of control; under setting [5], 41 % of control.

With `O=C(NO)c1ccc(O)c(O)c1`, the T/C runs as follows: (dose: 200.0 mg/kg/injection, schedule: Q04DX003 (sc), vehicle: distilled water + Tween-80) 103 % of control; (dose: 400.0 mg/kg/injection, schedule: Q04DX003 (sc), vehicle: distilled water + Tween-80) 74 % of control; (dose: 800.0 mg/kg/injection, schedule: Q04DX003 (sc), vehicle: distilled water + Tween-80) 78 % of control.

For the compound `CC(Cc1ccc(O)c(O)c1)C(C)Cc1ccc(O)c(O)c1` (centres undefined), the T/C is 107 % of control (dose: 300.0 mg/kg/injection, schedule: Q04DX003 (sc), vehicle: saline + alcohol); 90 % of control (dose: 600.0 mg/kg/injection, schedule: Q04DX003 (sc), vehicle: saline + alcohol); 104 % of control (dose: 1200.0 mg/kg/injection, schedule: Q04DX003 (sc), vehicle: saline + alcohol); 66 % of control (dose: 2400.0 mg/kg/injection, schedule: Q04DX003 (sc), vehicle: saline + alcohol).

With `CC1=C(O)C(=O)[C@@H]2O[C@@H]2C1=O`, the T/C runs as follows: (dose: 1.25 mg/kg/injection, schedule: Q04DX003 (sc), vehicle: saline) 103 % of control; (dose: 2.5 mg/kg/injection, schedule: Q04DX003 (sc), vehicle: saline) 106 % of control; (dose: 5.0 mg/kg/injection, schedule: Q04DX003 (sc), vehicle: saline) 160 % of control; (dose: 10.0 mg/kg/injection, schedule: Q04DX003 (sc), vehicle: saline) 114 % of control.

Turning to `C1CCC2OCCOCCOC3CCCCC3OCCOCCOC2C1` (centres undefined), the T/C was 170 % of control (dose: 9.38 mg/kg/injection, schedule: Q04DX003 (sc), vehicle: Klucel (hydroxypropylcellulose) (HPC)) and 159 % of control (dose: 18.75 mg/kg/injection, schedule: Q04DX003 (sc), vehicle: Klucel (hydroxypropylcellulose) (HPC)).

Turning to `COc1cccc2c1C(=O)c1c(O)c3c(c(O)c1C2=O)C[C@@](O)(C(=O)CO)C[C@@H]3OC1CC(N)C(O)C(C)O1` (some centres undefined), the T/C reads like this: (dose: 4.0 mg/kg/injection, schedule: Q04DX003 (sc), vehicle: water) 45 % of control and 53 % of control; (dose: 4.5 mg/kg/injection, schedule: Q04DX003 (sc), vehicle: saline) 72 % of control; (dose: 9.0 mg/kg/injection, schedule: Q04DX003 (sc), vehicle: saline) 44 % of control.

Turning to `O=NNc1ccccn1`, the T/C by setting is: (dose: 0.13 mg/kg/injection, schedule: Q01DX010 (sc), vehicle: saline) 120 % of control; (dose: 0.25 mg/kg/injection, schedule: Q01DX010 (sc), vehicle: saline) 309 % of control; (dose: 0.5 mg/kg/injection, schedule: Q01DX010 (sc), vehicle: saline) 211 % of control; (dose: 1.0 mg/kg/injection, schedule: Q01DX010 (sc), vehicle: saline) 105 % of control; under setting [6], 46 % of control; (dose: 64.0 mg/kg/injection, schedule: Q01DX010 (sc), vehicle: saline) 30 % of control.

As to `O=c1[nH]c2c(ccc3cnccc32)c2c1CCC2`, the T/C (dose: 100.0 mg/kg/injection, schedule: Q04DX003 (sc), vehicle: suspension in saline) was 87 % of control; the T/C (dose: 200.0 mg/kg/injection, schedule: Q04DX003 (sc), vehicle: suspension in saline) is 87 % of control; the T/C (dose: 400.0 mg/kg/injection, schedule: Q04DX003 (sc), vehicle: suspension in saline) is 57 % of control; the T/C (dose: 800.0 mg/kg/injection, schedule: Q04DX003 (sc), vehicle: suspension in saline) was 109 % of control.

For `C=C/C(C)=C/[C@H](C)C(=O)C[C@H](O)CC1CC(=O)NC(=O)C1`, the T/C is 111 % of control under setting [7], 61 % of control under setting [4], 69 % of control under setting [5] and 70 % of control under setting [8].

In the case of `COC1=C(NC(C)=O)C(=O)c2nc(-c3nc(C(=O)O)c(C)c(-c4ccc(OC)c(OC)c4O)c3N)ccc2C1=O`, the T/C by setting is: (dose: 25.0 mg/kg/injection, schedule: Q04DX003 (sc), vehicle: Klucel (hydroxypropylcellulose) (HPC)) 63 % of control; (dose: 50.0 mg/kg/injection, schedule: Q04DX003 (sc), vehicle: Klucel (hydroxypropylcellulose) (HPC)) 55 % of control; under setting [9], 40 % of control.

As for `Oc1cc2ccccc2c(-c2c(O)c(O)cc3ccccc23)c1O`, the T/C under setting [7] was 85 % of control, the T/C under setting [4] was 108 % of control, the T/C under setting [5] was 42 % of control and the T/C under setting [8] is 52 % of control.

As for `CCCCCCCCCCCCCCC/C([O-])=N/[N+](C)(C)CC(C)O` (centres undefined), the T/C is, setting by setting: under setting [9], 66 % of control; (dose: 200.0 mg/kg/injection, schedule: Q04DX003 (sc), vehicle: Klucel (hydroxypropylcellulose) (HPC)) 54 % of control; (dose: 400.0 mg/kg/injection, schedule: Q04DX003 (sc), vehicle: Klucel (hydroxypropylcellulose) (HPC)) 103 % of control; (dose: 800.0 mg/kg/injection, schedule: Q04DX003 (sc), vehicle: Klucel (hydroxypropylcellulose) (HPC)) 77 % of control; (dose: 1200.0 mg/kg/injection, schedule: Q04DX003 (sc), vehicle: Klucel (hydroxypropylcellulose) (HPC)) 77 % of control; (dose: 2400.0 mg/kg/injection, schedule: Q04DX003 (sc), vehicle: Klucel (hydroxypropylcellulose) (HPC)) 69 % of control.

For `Cc1ccc(S(=O)(=O)N/N=C/C(=O)O)cc1`, the T/C was 98 % of control (dose: 12.5 mg/kg/injection, schedule: Q01DX010 (sc), vehicle: Klucel (hydroxypropylcellulose) (HPC)); 37 % of control and 55 % of control under setting [1]; 45 % of control under setting [2]; 58 % of control under setting [3].

Regarding `Cc1c(N)nc(C(CC(N)=O)NCC(N)C(N)=O)nc1C(=O)NC(C(=O)NC(C)C(O)C(C)C(=O)NC(C(=O)NCCc1nc(-c2nc(C(=O)NCCCNC(C)c3ccccc3)cs2)cs1)C(C)O)C(OC1OC(CO)C(O)C(O)C1OC1OC(CO)C(O)C(OC(N)=O)C1O)c1cnc[nH]1` (centres undefined), the T/C (dose: 2.0 mg/kg/injection, schedule: Q01DX010 (sc), vehicle: saline) is 53 % of control; the T/C (dose: 4.0 mg/kg/injection, schedule: Q01DX010 (sc), vehicle: saline) was 32 % of control; the T/C (dose: 16.0 mg/kg/injection, schedule: Q01DX010 (sc), vehicle: saline) is 22 % of control and 28 % of control; the T/C under setting [6] was 39 % of control.

`CCCCCCOC(CN(C)C)C(Cl)(Cl)Cl` (centres undefined): the T/C is 121 % of control (dose: 200.0 mg/kg/injection, schedule: Q04DX003 (sc), vehicle: saline with Tween-80); 95 % of control (dose: 400.0 mg/kg/injection, schedule: Q04DX003 (sc), vehicle: saline with Tween-80); 59 % of control (dose: 800.0 mg/kg/injection, schedule: Q04DX003 (sc), vehicle: saline with Tween-80); 74 % of control (dose: 1600.0 mg/kg/injection, schedule: Q04DX003 (sc), vehicle: saline with Tween-80).
